This assay concerns the target USP1 (construct USP1 (I-785, GG670, 671AA)/UAF1 (I-677)-Flag) (Homo sapiens (Human), UniProt O94782, G670A/G671A). Description: Ubiquitin-Rhodamine 110 assay for USP1 activity. It is filed as biochemical. Conditions: USP1/UAF1 25 pM, Ub-Rh110 25 nM, 30 min preincubation. In short, it runs like this: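 Two formats with the USP1/UAF1 complex and 25 nM ubiquitin-rhodamine 110 in pH 8.0 Tris buffer with calcium, glutathione and detergent. Single-point screening used 10 µM, 100 pM enzyme and 45 min. Inhibition was set against no-enzyme and DMSO wells.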
Chain of USP1 (construct USP1 (I-785, GG670, 671AA)/UAF1 (I-677)-Flag) (O94782 whole entry G670A/G671A): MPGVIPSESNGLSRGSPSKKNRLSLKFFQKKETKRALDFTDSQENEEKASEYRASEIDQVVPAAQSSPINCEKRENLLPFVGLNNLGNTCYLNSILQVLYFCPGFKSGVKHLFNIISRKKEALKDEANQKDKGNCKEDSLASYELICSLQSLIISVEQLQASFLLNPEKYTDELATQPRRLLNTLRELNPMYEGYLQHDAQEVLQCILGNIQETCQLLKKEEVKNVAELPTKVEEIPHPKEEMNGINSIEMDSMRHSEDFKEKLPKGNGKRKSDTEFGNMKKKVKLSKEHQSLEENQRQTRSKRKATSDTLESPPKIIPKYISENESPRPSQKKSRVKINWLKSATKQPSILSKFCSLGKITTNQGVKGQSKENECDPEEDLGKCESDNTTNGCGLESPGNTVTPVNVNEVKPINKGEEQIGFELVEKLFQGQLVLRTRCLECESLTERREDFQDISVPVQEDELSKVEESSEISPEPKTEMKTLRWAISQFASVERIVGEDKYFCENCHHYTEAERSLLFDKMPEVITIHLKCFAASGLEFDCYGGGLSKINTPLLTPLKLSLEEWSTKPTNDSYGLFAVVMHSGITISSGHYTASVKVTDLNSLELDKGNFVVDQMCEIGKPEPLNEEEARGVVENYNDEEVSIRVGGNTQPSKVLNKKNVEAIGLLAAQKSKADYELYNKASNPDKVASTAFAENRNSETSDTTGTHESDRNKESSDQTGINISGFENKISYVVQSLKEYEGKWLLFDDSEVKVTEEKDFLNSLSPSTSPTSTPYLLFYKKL
Chain of USP1 (construct USP1 (I-785, GG670, 671AA)/UAF1 (I-677)-Flag) (Q8TAF3 whole entry partner): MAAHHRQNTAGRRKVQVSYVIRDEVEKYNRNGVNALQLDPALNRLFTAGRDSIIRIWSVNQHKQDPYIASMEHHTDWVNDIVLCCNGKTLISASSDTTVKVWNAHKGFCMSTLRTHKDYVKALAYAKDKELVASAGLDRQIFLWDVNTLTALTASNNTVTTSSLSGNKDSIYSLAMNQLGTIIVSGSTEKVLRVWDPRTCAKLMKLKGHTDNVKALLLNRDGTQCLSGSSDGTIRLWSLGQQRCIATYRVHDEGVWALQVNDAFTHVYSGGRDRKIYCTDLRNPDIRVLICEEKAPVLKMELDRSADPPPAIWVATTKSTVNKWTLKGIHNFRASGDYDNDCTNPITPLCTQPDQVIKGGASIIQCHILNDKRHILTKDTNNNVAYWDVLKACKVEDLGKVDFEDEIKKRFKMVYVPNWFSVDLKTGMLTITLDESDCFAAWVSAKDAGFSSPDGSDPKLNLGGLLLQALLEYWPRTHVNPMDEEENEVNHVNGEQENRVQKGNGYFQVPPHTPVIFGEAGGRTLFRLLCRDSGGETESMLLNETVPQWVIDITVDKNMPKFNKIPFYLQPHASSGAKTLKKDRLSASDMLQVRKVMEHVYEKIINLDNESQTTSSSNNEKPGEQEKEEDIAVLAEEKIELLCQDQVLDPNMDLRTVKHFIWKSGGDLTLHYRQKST
For `CC(C)c1ccccc1-c1ncc2c(n1)n(Cc1ccc(-c3nccn3C3CCNCC3)cc1)c(=O)n2C` [Compound I-499, 2-(2-isopropylphenyl)-7-methyl-9-(4-(1-(piperidin-4-yl)-1H-imidazol-2-yl)benzyl)-7,9-dihydro-8H-purin-8-one], the IC50 – broadly, the concentration at which inhibition is half-maximal – was < 50 nM.

In the case of `CC(C)c1ccccc1-c1ncc2c(n1)n(CC1CCN(S(=O)(=O)c3cccnc3)CC1)c(=O)n2C` [Compound I-449, 2-(2-isopropylphenyl)-7-methyl-9-((1-(pyridin-3-ylsulfonyl)piperidin-4-yl)methyl)-7,9-dihydro-8H-purin-8-one], the IC50 is > 2000 nM. Then `CC(C)c1ncccc1-c1ncc2[nH]c(=O)n([C@@H](C)c3ccc(-c4nc(C(F)(F)F)cn4C)cc3)c2n1` [Compound I-80, (S)-2-(2-isopropylpyridin-3-yl)-9-(1-(4-(1-methyl-4-(trifluoromethyl)-1H-imidazol-2-yl)phenyl)ethyl)-7,9-dihydro-8H-purin-8-one], with < 50 nM; and `Cn1cc(C(F)(F)F)nc1-c1ccc(Cn2c(=O)[nH]c3cnc(-c4cccnc4OC4CC4)nc32)cc1` [Compound I-420, 2-(2-cyclopropoxypyridin-3-yl)-9-(4-(1-methyl-4-(trifluoromethyl)-1H-imidazol-2-yl)benzyl)-7,9-dihydro-8H-purin-8-one], with < 50 nM. On to `CC(C)c1ccccc1-c1ncc2[nH]c(=O)n(Cc3ccc(-n4ccc(C5CCNCC5)n4)cc3)c2n1` [Compound I-431, 2-(2-isopropylphenyl)-9-(4-(3-(piperidin-4-yl)-1H-pyrazol-1-yl)benzyl)-7,9-dihydro-8H-purin-8-one], for which the IC50 was 50 to 200 nM. In the case of `CC(C)c1ccccc1-c1ncc2c(n1)n(Cc1ccc(-c3cccc4cnoc34)cc1)c(=O)n2C` [Compound I-267, 9-(4-(benzo[d]isoxazol-7-yl)benzyl)-2-(2-isopropylphenyl)-7-methyl-7,9-dihydro-8H-purin-8-one], the IC50 was in the range of 200 to 2000 nM. Then `COc1nc(-c2ccc(Cn3c(=O)n(C)c4cnc(-c5ccccc5C(C)C)nc43)cc2)nn1C` [Compound I-281, 2-(2-isopropylphenyl)-9-(4-(5-methoxy-1-methyl-1H-1,2,4-triazol-3-yl)benzyl)-7-methyl-7,9-dihydro-8H-purin-8-one], with < 50 nM; and `CC(C)c1cccc(F)c1-c1ncc2[nH]c(=O)n(Cc3ccc(-n4cccn4)cc3)c2n1` [Compound I-96, 9-(4-(1H-pyrazol-1-yl)benzyl)-2-(2-fluoro-6-isopropylphenyl)-7,9-dihydro-8H-purin-8-one], with < 50 nM; and `Cc1cn(C)nc1-c1ccc(Cn2c(=O)[nH]c3cnc(-c4cccnc4C(C)C)nc32)cc1` [Compound I-47, 9-(4-(1,4-dimethyl-1H-pyrazol-3-yl)benzyl)-2-(2-isopropylpyridin-3-yl)-7,9-dihydro-8H-purin-8-one], with 200 to 2000 nM. To `CC(C)c1ccccc1-c1ncc2[nH]c(=O)n([C@@H](C)c3ccc(-n4ccnn4)cc3)c2n1` [Compound I-147, (S)-9-(1-(4-(1H-1,2,3-triazol-1-yl)phenyl)ethyl)-2-(2-isopropylphenyl)-7,9-dihydro-8H-purin-8-one] belongs 50 to 200 nM; to `CC(C)c1ccccc1-c1ncc2[nH]c(=O)n(Cc3ccc(C(=O)N4CC[C@H](O)C4)cc3)c2n1` [Compound I-378, (S)-9-(4-(3-hydroxypyrrolidine-1-carbonyl)benzyl)-2-(2-isopropylphenyl)-7,9-dihydro-8H-purin-8-one], 200 to 2000 nM; to `CC(C)c1c(F)cccc1-c1ncc2[nH]c(=O)n(Cc3ccc(-n4cccn4)cc3)c2n1` [Compound I-170, 9-(4-(1H-pyrazol-1-yl)benzyl)-2-(3-fluoro-2-isopropylphenyl)-7,9-dihydro-8H-purin-8-one], < 50 nM.

As for `CC(C)c1ccccc1-c1ncc2[nH]c(=O)n(Cc3ccc(-n4cccn4)nc3)c2n1` [Compound I-146, 9-((6-(1H-pyrazol-1-yl)pyridin-3-yl)methyl)-2-(2-isopropylphenyl)-7,9-dihydro-8H-purin-8-one], the IC50 was in the range of 50 to 200 nM.

With `COc1cc(C)n(-c2ccc(Cn3c(=O)n(C)c4cnc(-c5cccnc5C(C)C)nc43)cc2)n1` [Compound I-118, 2-(2-isopropylpyridin-3-yl)-9-(4-(3-methoxy-5-methyl-1H-pyrazol-1-yl)benzyl)-7-methyl-7,9-dihydro-8H-purin-8-one], the IC50 was < 50 nM. To `CC(C)c1ccccc1-c1ncc2c(n1)n(Cc1ccc(-c3nc(C(N)=O)n(C)n3)cc1)c(=O)n2C` [Compound I-278, 3-(4-((2-(2-isopropylphenyl)-7-methyl-8-oxo-7,8-dihydro-9H-purin-9-yl)methyl)phenyl)-1-methyl-1H-1,2,4-triazole-5-carboxamide] belongs 50 to 200 nM. With `CC(C)c1ccccc1-c1ncc2[nH]c(=O)n(Cc3ccc(-c4nc(C(F)(F)F)cn4C4CNC4)cc3)c2n1` [Compound I-430, 9-(4-(1-(azetidin-3-yl)-4-(trifluoromethyl)-1H-imidazol-2-yl)benzyl)-2-(2-isopropylphenyl)-7,9-dihydro-8H-purin-8-one], the IC50 is < 50 nM. Then `CC(=O)N1CCC(c2ccn(-c3ccc(Cn4c(=O)[nH]c5cnc(-c6cccnc6C(C)C)nc54)cc3)n2)CC1` [Compound I-465, 9-(4-(3-(1-acetylpiperidin-4-yl)-1H-pyrazol-1-yl)benzyl)-2-(2-isopropylpyridin-3-yl)-7,9-dihydro-8H-purin-8-one], with 200 to 2000 nM; and `Cc1nc(S(=O)(=O)Nc2ccc(Cn3c(=O)n(C)c4cnc(-c5ccccc5C(C)C)nc43)cc2)cn1C` [Compound I-455, N-(4-((2-(2-isopropylphenyl)-7-methyl-8-oxo-7,8-dihydro-9H-purin-9-yl)methyl)phenyl)-1,2-dimethyl-lH-imidazole-4-sulfonamide], with > 2000 nM. To `CC(C)c1c(F)cccc1-c1ncc2[nH]c(=O)n(Cc3ccc(-c4nc(C(F)(F)F)cn4C)cc3)c2n1` [Compound I-193, 2-(3-fluoro-2-isopropylphenyl)-9-(4-(1-methyl-4-(trifluoromethyl)-1H-imidazol-2-yl)benzyl)-7,9-dihydro-8H-purin-8-one] belongs < 50 nM; to `CC(C)c1c(F)cccc1-c1ncc2[nH]c(=O)n(Cc3ccc(-n4ccnn4)cc3)c2n1` [Compound I-165, 9-(4-(1H-1,2,3-triazol-1-yl)benzyl)-2-(3-fluoro-2-isopropylphenyl)-7,9-dihydro-8H-purin-8-one], 50 to 200 nM. Then `CC(C)c1ccccc1-c1ncc2[nH]c(=O)n(Cc3ccc(C(=O)N(C)CC(F)(F)F)cc3)c2n1` [Compound I-406, 4-((2-(2-isopropylphenyl)-8-oxo-7,8-dihydro-9H-purin-9-yl)methyl)-N-methyl-N-(2,2,2-trifluoroethyl)benzamide], with 50 to 200 nM; and `CC(C)c1c(F)cccc1-c1ncc2[nH]c(=O)n(Cc3ccc(-n4ccc(C5CCN(C)CC5)n4)cc3)c2n1` [Compound I-441, 2-(3-fluoro-2-isopropylphenyl)-9-(4-(3-(1-methylpiperidin-4-yl)-1H-pyrazol-1-yl)benzyl)-7,9-dihydro-8H-purin-8-one], with 50 to 200 nM.

For `CC(C)c1ccccc1-c1ncc2c(n1)n(Cc1ccc(-c3nc(C(F)(F)F)cn3C3CN(C)C3)cc1)c(=O)n2C` [Compound I-448, 2-(2-isopropylphenyl)-7-methyl-9-(4-(1-(1-methylazetidin-3-yl)-4-(trifluoromethyl)-1H-imidazol-2-yl)benzyl)-7,9-dihydro-8H-purin-8-one], the IC50 was < 50 nM.

Molecule `Cc1nc(CN(C)C(=O)c2ccc(Cn3c(=O)[nH]c4cnc(-c5ccccc5C(C)C)nc43)cc2)cs1` [Compound I-371, 4-((2-(2-isopropylphenyl)-8-oxo-7,8-dihydro-9H-purin-9-yl)methyl)-N-methyl-N-((2-methylthiazol-4-yl)methyl)benzamide] yielded an IC50 of 50 to 200 nM. Then `Cc1nc(-c2ccc(Cn3c(=O)n(C)c4cnc(-c5ccccc5C(C)C)nc43)cc2)nn1C` [Compound I-279, 9-(4-(1,5-dimethyl-1H-1,2,4-triazol-3-yl)benzyl)-2-(2-isopropylphenyl)-7-methyl-7,9-dihydro-8H-purin-8-one], with < 50 nM; and `CC(C)c1ccccc1-c1ncc2[nH]c(=O)n(Cc3ccc(C(=O)N(C)Cc4ccc(F)cc4)cc3)c2n1` [Compound I-365, N-(4-fluorobenzyl)-4-((2-(2-isopropylphenyl)-8-oxo-7,8-dihydro-9H-purin-9-yl)methyl)-N-methylbenzamide], with 50 to 200 nM. To `COc1nc(-c2ccc(Cn3c(=O)[nH]c4cnc(-c5ccccc5C(C)C)nc43)cc2)nn1C` [Compound I-295, 2-(2-isopropylphenyl)-9-(4-(5-methoxy-1-methyl-1H-1,2,4-triazol-3-yl)benzyl)-7,9-dihydro-8H-purin-8-one] belongs < 50 nM; to `CC(C)c1ccccc1-c1ncc2c(n1)n(Cc1cccc(OCC3CC3)c1)c(=O)n2C` [Compound I-239, 9-(3-(cyclopropylmethoxy)benzyl)-2-(2-isopropylphenyl)-7-methyl-7,9-dihydro-8H-purin-8-one], > 2000 nM; to `Cc1cc(C(=O)N(C)c2ccc(Cn3c(=O)n(C)c4cnc(-c5ccccc5C(C)C)nc43)cc2)n[nH]1` [Compound I-470, N-(4-((2-(2-isopropylphenyl)-7-methyl-8-oxo-7,8-dihydro-9H-purin-9-yl)methyl)phenyl)-N,5-dimethyl-1H-pyrazole-3-carboxamide], > 2000 nM.

On to `CN(C)c1ccccc1-c1ncc2[nH]c(=O)n(Cc3ccc(-c4nc(C(F)(F)F)cn4C)cc3)c2n1` [Compound I-90, 2-(2-(dimethylamino)phenyl)-9-(4-(1-methyl-4-(trifluoromethyl)-1H-imidazol-2-yl)benzyl)-7,9-dihydro-8H-purin-8-one], for which the IC50 was < 50 nM.

The record behind these values is patent US10189841B2, “Purinones as ubiquitin-specific protease 1 inhibitors” (Forma Therapeutics, Inc., priority 2015, dated 2019).
